Test [1] concerns lung damage model induced by cobra venom factor (CVF); infiltration in neutrocyte (myeloperoxidase). Put plainly: Anti-inflammatory action to lung damage model induced by CVF: myeloperoxidase activity as index of infiltration in neutrocyte. It counts as in vivo, Lewis rats. The following applies: Rattus norvegicus, iv, 0.5 h, read-out: Inhibition rate (%), myeloperoxidase activity as index of infiltration in neutrocyte. On the procedure:
(§1) Anti-inflammatory action to lung damage model induced by CVF Compounds obtained by Examples and an exemplary known compound (sulfatide) were selected as Test Compounds to check an inflammatory action thereof to a lung damage model induced by cobra venom factor (CVF), in accordance with the method described by M. S. Mulligan et al ["J. IMMUNOL.", Vol.151, page 6410 (1993); and "INT. IMMUNOL.", Vol. 7, page 1107 (1995)].
(§2) Namely, the test compound was intravenously injected by an amount of 0.2 mg/rat to test animals (Lewis rats, age of 8 weeks, 5 animals in each group). After lapsed 5 minutes from administration, CVF (20U/2 ml/kg) was administered in a tail vein, and after 30 minutes, a laparotomy was carried out under nembutal anesthesia to perfuse the lung with phosphate-buffered saline (PBS, pH7.4) by injecting the same from right ventricle and to exenterate the lung. The extracted lung was homogenized with phosphate buffer (pH 7.4), centrifuged to collect a supernatant, and determined absorbance which was admitted as index of bleeding (It measures an amount of hemoglobin and thus detection wave-length was set to 541 nm).
On the other hand, the precipitation obtained by centrifugation was sonicated in the presence of cetrimide and centrifuged to obtain a supernatant, an activity myeloperoxidase therein being measured as an index of infiltration in neutrocyte.
(§3) Each inhibition rate (%) was calculated by
(§4) 100×[1-(value of test compound-value of negative control)/(value of positive control-value of negative control)].

Test [2] relates to lung damage model induced by cobra venom factor (CVF); bleeding. Put plainly: Anti-inflammatory action to lung damage model induced by CVF: index of bleeding (hemoglobin absorbance, 541 nm, in lung homogenate supernatant). The conditions noted are these: Rattus norvegicus, iv, 0.5 h, read-out: Inhibition rate (%), index of bleeding. The format is in vivo, Lewis rats. As for the experimental part: as §1, §2, §3, §4

Consider 25 compounds from patent US5869460A, “Sulfated and phosphated saccharide derivatives, process for the preparation of the same and use thereof” (Sanwa Kaguku Kenkyusho Co., Ltd., priority 1995, dated 1999).

For `CC(C)CO[C@@H]1O[C@H](CO)[C@H](O)[C@H](OS(=O)(=O)O)[C@H]1O` [Example 1-1, Sodium 2-methylpropyl β-D-galactopyranoside 3-sulfate], the inhibition in vivo at 0.2 mg in test [1] and in test [2] was 22% throughout.

Consider `CC(C)CO[C@@H]1O[C@H](COS(=O)(=O)O)[C@H](O)[C@H](OS(=O)(=O)O)[C@H]1O` [Example 1-2, disodium 2-methylpropyl β-D-galactopyranoside 3,6-disulfate], for which the inhibition in vivo at 0.2 mg is 22% in test [1] and 16% in test [2].

Turning to `CC(C)CO[C@@H]1O[C@H](COS(=O)(=O)O)[C@H](O)[C@H](O)[C@H]1O` [Example 2, Sodium 2-methylpropyl β-D-galactopyranoside 6-sulfate], the inhibition in vivo at 0.2 mg stood at 32% in test [1] and 36% in test [2].

`CC(C)CO[C@@H]1O[C@H](COS(=O)(=O)O)[C@H](OS(=O)(=O)O)[C@H](OS(=O)(=O)O)[C@H]1O` [Example 3-1, trisodium 2-methylpropyl β-D-galactopyranoside 3,4,6-trisulfate]: the inhibition in vivo at 0.2 mg came to 36% in test [1] and 27% in test [2].

In the case of `CC(C)CO[C@@H]1O[C@H](COS(=O)(=O)O)[C@H](OS(=O)(=O)O)[C@H](OS(=O)(=O)O)[C@H]1OS(=O)(=O)O` [Example 3-2, tetrasodium 2-methylpropyl β-D-galactopyranoside 2,3,4,6-tetrasulfate], the inhibition in vivo at 0.2 mg in test [1] was determined as 24%; in test [2], 49%.

In the case of `CCCC(CCC)CO[C@@H]1O[C@H](CO)[C@H](O)[C@H](OS(=O)(=O)O)[C@H]1O` [Example 4, Sodium 2-pronylpentyl β-D-galactopyranoside 3-sulfate], the inhibition in vivo at 0.2 mg is 58% in test [1] and 39% in test [2].

Regarding `CCCC(CCC)CO[C@@H]1O[C@H](COS(=O)(=O)O)[C@H](O)[C@H](O)[C@H]1O` [Example 5, Sodium 2-propylpentyl β-D-galactopyranoside 6-sulfate], the inhibition in vivo at 0.2 mg in test [1] is 47%; in test [2] it was 52%.

Turning to `CCCC(CCC)CO[C@@H]1O[C@H](COS(=O)(=O)O)[C@H](O)[C@H](OS(=O)(=O)O)[C@H]1O` [Example 6, Disodium 2-propylpentyl β-D-galactopyranoside 3,6-disulfate], the inhibition in vivo at 0.2 mg in test [1] stood at 12%; in test [2], 0%.

As to `CCCC(CCC)CO[C@@H]1O[C@H](COS(=O)(=O)O)[C@H](O)[C@H](OS(=O)(=O)O)[C@H]1OS(=O)(=O)O` [Example 7-1, Trisodium 2-propylpentyl β-D-galactopyranoside 2,3,6-trisulfate], the values for the inhibition in vivo at 0.2 mg in test [1] and in test [2] were 26% and 36%, respectively.

Turning to `CCCC(CCC)CO[C@@H]1O[C@H](COS(=O)(=O)O)[C@H](OS(=O)(=O)O)[C@H](OS(=O)(=O)O)[C@H]1OS(=O)(=O)O` [Example 7-2, tetrasodium 2-propylpentyl β-D-galactopyranoside 2,3,4,6-tetrasulfate], the inhibition in vivo at 0.2 mg in test [1] and in test [2] was 42% each time.

`CCCCCCCCCCCCCCCCCCCCCCC(CCCCCCCCCCCCCCCC)CO[C@@H]1O[C@H](CO)[C@H](O)[C@H](OS(=O)(=O)O)[C@H]1O` (stereo partly drawn) [Example 8, Sodium 2-hexadecyltetracosyl β-D-galactopyranoside 3-sulfate]: the inhibition in vivo at 0.2 mg in test [1] worked out at 51%; in test [2], 53%.

Take `CC(C)CO[C@@H]1O[C@H](CO)[C@@H](O[C@@H]2O[C@H](CO)[C@H](O)[C@H](OS(=O)(=O)O)[C@H]2O)[C@H](O)[C@H]1O` [Example 9-1, sodium 2-methylpropyl O-β-D-galactopyranosyl-(1→4)-β-D-glucopyranoside 3'-sulfate]: the inhibition in vivo at 0.2 mg in test [1] is 58%; in test [2] it was 84%.

As for `CC(C)CO[C@@H]1O[C@H](CO)[C@@H](O[C@@H]2O[C@H](COS(=O)(=O)O)[C@H](O)[C@H](OS(=O)(=O)O)[C@H]2O)[C@H](O)[C@H]1O` [Example 9-2, disodium 2-methylpropyl O-β-D-galactopyranosyl-(1→4)-β-D-glucopyranoside 3',6'-disulfate], the inhibition in vivo at 0.2 mg in test [1] worked out at 86%; in test [2], 100%.

Consider `CCCC(CCC)CO[C@@H]1O[C@H](CO)[C@@H](O[C@@H]2O[C@H](CO)[C@H](O)[C@H](OS(=O)(=O)O)[C@H]2O)[C@H](O)[C@H]1O` [Example 10-1, Sodium 2-propylpentyl O-β-D-galactopyranosyl-(1→4)-β-D-glucopyranoside 3'-sulfate], for which the inhibition in vivo at 0.2 mg in test [1] is 66%; in test [2] it was 65%.

As to `CCCC(CCC)CO[C@@H]1O[C@H](CO)[C@@H](O[C@@H]2O[C@H](COS(=O)(=O)O)[C@H](O)[C@H](OS(=O)(=O)O)[C@H]2O)[C@H](O)[C@H]1O` [Example 10-2, disodium 2-propylpentyl O-β-D-galactopyranosyl-(1→4)-β-D-glucopyranoside 3',6'-disulfate], the inhibition in vivo at 0.2 mg in test [1] amounted to 82%; in test [2], 63%.

In the case of `CCCCCCCCCCCCCCC(CCCCCCCCCCCCCC)CO[C@@H]1O[C@H](CO)[C@@H](O[C@@H]2O[C@H](COS(=O)(=O)O)[C@H](O)[C@H](OS(=O)(=O)O)[C@H]2O)[C@H](O)[C@H]1O` [Example 11-1, Disodium 2-tetradecylhexadecyl O-β-D-galactopyranosyl-(1→4)-β-D-glucopyranoside 3',6'-disulfate], the inhibition in vivo at 0.2 mg in test [1] was determined as 82%; in test [2], 100%.

Take `CCCCCCCCCCCCCCC(CCCCCCCCCCCCCC)CO[C@@H]1O[C@H](COS(=O)(=O)O)[C@@H](O[C@@H]2O[C@H](COS(=O)(=O)O)[C@H](O)[C@H](OS(=O)(=O)O)[C@H]2O)[C@H](O)[C@H]1O` [Example 11-2, trisodium 2-tetradecylhexadecyl O-β-D-galactopyranosyl-(1→4)-β-D-glucopyranoside 3',6',6-trisulfate]: the values for the inhibition in vivo at 0.2 mg in test [1] and in test [2] were 70% and 82%, respectively.

Turning to `CC(C)CO[C@@H]1O[C@H](COP(=O)(O)O)[C@H](OP(=O)(O)O)[C@H](OP(=O)(O)O)[C@H]1OP(=O)(O)O` [Example 12, Octasodium 2-methylpropyl β-D-galactopyranoside 2,3,4,6-tetranhosphate], the inhibition in vivo at 0.2 mg came to 30% in test [1] and 0% in test [2].

`CCCC(CCC)CO[C@@H]1O[C@H](COP(=O)(O)O)[C@H](OP(=O)(O)O)[C@H](OP(=O)(O)O)[C@H]1OP(=O)(O)O` [Example 13, Octasodium 2-propylpentyl β-D-galactopyranoside 2,3,4,6-tetranhosphate]: the inhibition in vivo at 0.2 mg in test [1] was 46%; in test [2], 43%.

As to `CCCCCCCCCCCCCCC(CCCCCCCCCCCCCC)CO[C@@H]1O[C@H](COP(=O)(O)O)[C@H](OP(=O)(O)O)[C@H](OP(=O)(O)O)[C@H]1OP(=O)(O)O` [Example 14, Octasodium 2-tetradecylhexadecyl β-D-galactopyranoside2,3,4,6-tetraphosphate], the figures for the inhibition in vivo at 0.2 mg in test [1] and in test [2] were 41% and 55%, respectively.

With `CC(C)CO[C@@H]1O[C@H](CO)[C@H](OP(=O)(O)O)[C@H](OP(=O)(O)O)[C@H]1O` [Example 15, Tetrasodium 2-methylpropyl β-D-galactopyranoside 3,4-diphosphate], the values for the inhibition in vivo at 0.2 mg in test [1] and in test [2] were 44% and 45%, respectively.

For `CCCC(CCC)CO[C@@H]1O[C@H](CO)[C@H](OP(=O)(O)O)[C@H](OP(=O)(O)O)[C@H]1O` [Example 16, Tetrasodium 2-propylpentyl β-D-galactopyranoside 3,4-diphosphate], the inhibition in vivo at 0.2 mg in test [1] turned out to be 70%; in test [2], 75%.

In the case of `CCCCCCCCCCCCCCC(CCCCCCCCCCCCCC)CO[C@@H]1O[C@H](CO)[C@H](OP(=O)(O)O)[C@H](OP(=O)(O)O)[C@H]1O` [Example 17, Tetrasodium 2-tetradecylhexadecyl β-D-galactopyranoside 3,4-dinhosphate], the inhibition in vivo at 0.2 mg is 73% in test [1] and 74% in test [2].

Take `CCCC(CCC)CO[C@@H]1O[C@H](CO)[C@H](O)[C@H](OP(=O)(O)O)[C@H]1O` [Example 18, Disodium 2-propylpentyl β-D-galactopyranoside 3-phosphate]: the values for the inhibition in vivo at 0.2 mg in test [1] and in test [2] were 51% and 50%, respectively.

Turning to `CCCC(CCC)CO[C@@H]1O[C@H](CO)[C@@H](O)[C@H](OP(=O)(O)O)[C@H]1OP(=O)(O)O` [Example 19, Tetrasodium 2-propylpentyl β-D-glucopyranoside 2,3-diphosphate], the inhibition in vivo at 0.2 mg turned out to be 39% in test [1] and 43% in test [2].
